{"source": "patent US20070026042A1", "about": "“System for treating aneurysmal disease” (priority 2005, published 2007)", "key": {"[1]": {"tested_on": "infrarenal abdominal aorta", "test": "Elastase-induced abdominal aortic aneurysm model in rats", "format": "in vivo, Wistar rats", "details": "for relative efficacy in suppressing aneurysmal dilatation compared to Dox at the same dose / inhibition of aortic dilatation induced by elastase perfusion: 15 mg/kg/day; for inhibition of aortic dilatation induced by elastase perfusion: vs saline, Student's t-test", "text": "Male Wistar rats (350-400 g) were subjected to perfusion of an isolated segment of the infrarenal abdominal aorta with 50 units of porcine pancreatic elastase, using the method described by Anidjar. et al. (Anidjar, S, Salzmann, J L, Generic, D, Lagneau, P, Camilleri, J P, and Michel, J B, “Elastase induced experimental aneurysms in rats,” Circulation 82:973-981 (1990); Halpern et al. (Halpern, V J. Liao, Nackman, G B, Gandhi, R H, Irizarry, E, Scholes, J V, Ramey, W G, and Tilson, M D, “The elastase infusion model of experimental aortic aneurysms: Synchrony of induction of endogenous protinases with matrix destruction and inflammatory cell response,” J. Vasc. Surg. […] Surg 23:336-346 (1996)). This method is an accepted model for experimental induction of abdominal aortic aneurysms. The animals (n=6 rats in each group) were then treated with twice-daily subcutaneous injections of either saline vehicle (control), or various doses of doxycycline (Dox) or one of four different, non-antibiotic, chemically-modified tetracyclines (CMTs; CollaGenex, Inc., Newtown, Pa.). Aortic diameter (AD) was measured with microcalipers before and after elastase perfusion, and just prior to sacrifice on day 7. Abdominal aortic aneurysms were defined as an increase in final AD to at least twice that measured before perfusion (≥ 100% increase). Aortic tissues from two animals in each group were perfusion-fixed with 10% neutral buffered formalin, embedded in paraffin, and stained with Verhoeff-van Geisen (WG) for elastin. Tissues from the remaining animals were extracted, normalized to total protein, and analyzed by gelatin substrate zymography as described (Thompson et al. 1995; Halpern et al. 1994; Petrinec 1996).\nFor saline-treated control animals, mean AD increased by 125.±.18%, and 5 of the 6 (83%) of the animals had abdominal aortic aneurysms as defined."}, "[2]": {"test": "Liquid formulations of sirolimus and analogs: drug concentration by liquid chromatography, visual observation", "format": "physicochemical", "details": "Vitamin E TPGS, water, ethanol less than two percent", "experimental": "Certain excipients, such as Vitamin E TPGS and BHT may be utilized to enhance the storage stability of sirolimus compounds through their anti-oxidation properties.\nThe concentrations of each constituent were determined by liquid chromatography and are presented as weight by volume figures.\nIn another exemplary embodiment, the liquid formulation of sirolimus comprises water and ethanol as co-solvents and Vitamin E TPGS as the excipient. The liquid formulation was created utilizing the following process. Two hundred milligrams of sirolimus and two grams of ethanol were added to a pre-weighed twenty milliliter scintillation vial. The vial was vortexed and sonicated until the sirolimus was completely dissolved. Approximately six hundred milligrams of Vitamin E TPGS was then added to the solution of ethanol and sirolimus. The vial was vortexed again until a clear yellowish solution was obtained. Nitrogen gas was then used to reduce the amount of ethanol in the vial to approximately two hundred twenty-nine milligrams. In a separate vial, three hundred milligrams of Vitamin E TPGS was dissolved in eleven milliliters of purified water while undergoing vortexing. The Vitamin E TPGS and water solution was then added to the first vial containing the sirolimus, Vitamin E TPGS and ethanol. The first vial was then vortexed vigorously and continuously for three minutes. […]"}, "[3]": {"tested_on": "human coronary artery smooth muscle cells", "test": "Anti-proliferative activity in cultured human coronary artery smooth muscle cells", "format": "cell-based", "text": "The multiple curves represent various concentrations of mycophenolic acid ranging from zero to one thousand nanomolar concentrations.\nFIG. […]\nThe multiple curves represent various concentrations of cladribine ranging from zero to nine hundred nanomolar concentrations.\n(§1) The multiple curves represent various concentrations of topotecan ranging from zero to three hundred nanomolar concentrations.\n(§2) The multiple curves represent various concentrations of etoposide ranging from zero to eight hundred nanomolar concentrations.\nThe multiple curves represent various concentrations of Panzem® ranging from zero to 100 micromolar concentrations."}, "[4]": {"tested_on": "human coronary artery smooth muscle cell", "test": "MTS cytotoxicity assay", "format": "cell-based", "details": "6.6 nanomolar to 30,000.00 nanomolar, FIG. 69", "text": "Typically, a control is utilized to determine baseline toxicity."}, "[5]": {"test": "Cell viability assay (cytotoxicity)", "format": "cell-based", "text": "as §1, §2"}, "tumor cell lines": {"tested_on": "tumor cell lines", "details": "Woo et al., J. Med Chem 2002; cited from earlier work"}, "[6]": {"details": "non-synchronized cells, two percent fetal bovine serum"}, "[7]": {"details": "synchronized cells, two percent fetal bovine serum"}}}
{"molecule": "4-dedimethylamino-12a-deoxytetracycline [CMT-7]", "values": [{"measurement": "relative efficacy in suppressing aneurysmal dilatation compared to Dox at the same dose", "setting": "[1]", "value": 92, "unit": "%"}, {"measurement": "inhibition of aortic dilatation induced by elastase perfusion", "setting": "[1]", "value": "statistically significant"}]}
{"molecule": "CO[C@H]1C[C@@H]2CC[C@@H](C)[C@@](O)(O2)C(=O)C(=O)N2CCCC[C@H]2C(=O)O[C@H]([C@H](C)C[C@@H]2CC[C@@H](OC(=O)C(C)(CO)CO)[C@H](OC)C2)CC(=O)[C@H](C)/C=C(\\C)[C@@H](O)[C@@H](OC)C(=O)[C@H](C)C[C@H](C)/C=C/C=C/C=C/1C", "note": "[CCI-779]", "values": [{"measurement": "concentration of CCI-779 in the final solution (HPLC)", "setting": "[2]", "value": 15000, "unit": "µg/mL"}]}
{"molecule": "NC(=O)C1=C(O)C[C@@H]2C[C@@H]3Cc4cccc(O)c4C(=O)C3=C(O)[C@]2(O)C1=O", "note": "[CMT-3, 6-demethyl-6-deoxy 4-dedimethylaminotetracycline]", "values": [{"measurement": "relative efficacy in suppressing aneurysmal dilatation compared to Dox at the same dose", "setting": "[1]", "value": 92, "unit": "%"}, {"measurement": "inhibition of aortic dilatation induced by elastase perfusion", "setting": "[1]", "value": "statistically significant"}]}
{"molecule": "CC1(O)c2c(Cl)ccc(O)c2C(=O)C2=C(O)C3(O)C(=O)C(C(N)=O)=C(O)CC3CC21", "note": "(stereo not drawn) [CMT-4, 4-dedimethylamino-7-chlorotetra-cycline]", "values": [{"measurement": "relative efficacy in suppressing aneurysmal dilatation compared to Dox at the same dose", "setting": "[1]", "value": 75, "unit": "%"}, {"measurement": "inhibition of aortic dilatation induced by elastase perfusion", "setting": "[1]", "value": "did not reach statistical significance"}]}
{"molecule": "C[C@H]1c2cccc(O)c2C(O)=C2C(=O)[C@]3(O)C(O)=C(C(N)=O)C(=O)C[C@@H]3[C@@H](O)[C@@H]21", "note": "[CMT-8, 6-α-deoxy-5-hydroxy-4-dedimethylaminotetracycline]", "values": [{"measurement": "relative efficacy in suppressing aneurysmal dilatation compared to Dox at the same dose", "setting": "[1]", "value": 105, "unit": "%"}, {"measurement": "inhibition of aortic dilatation induced by elastase perfusion", "setting": "[1]", "value": "statistically significant"}]}
{"molecule": "Nc1nc(Cl)nc2c1ncn2[C@H]1C[C@H](O)[C@@H](CO)O1", "note": "[Cladribine, 2-chlorodeoxyadenosine]", "values": [{"measurement": "inhibition of human coronary artery smooth muscle cell proliferation", "setting": "[3]; non-synchronized cells stimulated with two percent fetal bovine serum, FIG. 58", "value": "completely inhibits"}, {"measurement": "effect of addition to rapamycin-treated cells on the anti-proliferative rapamycin dose response curve", "setting": "[3]; [6]", "value": "leftward and upward shift"}]}
{"molecule": "C[C@H]1c2cccc(O)c2C(=O)C2=C(O)[C@]3(O)C(=O)C(C(N)=O)=C(O)[C@@H](N(C)C)[C@@H]3[C@@H](O)[C@@H]21", "note": "[Dox, doxycycline]", "values": [{"measurement": "aortic dilatation (mean increase in aortic diameter)", "setting": "[1]; 60 mg/kg/day, twice-daily subcutaneous injections, day 7, saline control 125.±.18%", "value": "61.±.7%"}, {"measurement": "dose of maximal inhibition of aortic dilatation", "setting": "[1]; dose-dependent effect, FIG. 76", "value": "about 12.5 mg/kg/day"}]}
{"molecule": "COc1cc2c(cc1O)CC[C@@H]1[C@@H]2CC[C@]2(C)[C@@H](O)CC[C@@H]12", "note": "[Panzem®, 2-methoxyestradiol]", "values": [{"measurement": "effect of addition to rapamycin-treated cells on the anti-proliferative rapamycin dose response curve", "setting": "[3]; [7]", "value": "increases the percent of inhibition of rapamycin alone"}, {"measurement": "inhibition of human coronary artery smooth muscle cell proliferation in vitro", "setting": "[3]; synchronized cells, two percent fetal bovine serum, FIG. 66", "value": "extremely effective inhibitor"}, {"measurement": "cell survival in MTS assay", "setting": "[4]", "value": "do not reduce human coronary artery smooth muscle cell survival"}]}
{"molecule": "COc1cc([C@@H]2c3cc4c(cc3[C@@H](O[C@@H]3O[C@@H]5CO[C@@H](C)O[C@H]5[C@H](O)[C@H]3O)[C@H]3COC(=O)[C@H]23)OCO4)cc(OC)c1O", "note": "[etoposide]", "values": [{"measurement": "cytotoxicity in cell viability assay", "setting": "[5]; concentrations up to ten micromolar", "value": "non-cytotoxic"}, {"measurement": "effect of addition to rapamycin-treated cells on the anti-proliferative rapamycin dose response curve", "setting": "[3]; [6]", "value": "leftward and upward shift"}]}
{"molecule": "COc1c(C)c2c(c(O)c1C/C=C(\\C)CCC(=O)O)C(=O)OC2", "note": "[mycophenolic acid]", "values": [{"measurement": "effect of addition to rapamycin-treated cells on the anti-proliferative rapamycin dose response curve", "setting": "[3]; [6]", "value": "leftward and upward shift"}]}
{"molecule": "CC[C@@]1(O)C(=O)OCc2c1cc1n(c2=O)Cc2cc3c(CN(C)C)c(O)ccc3nc2-1", "note": "[topotecan]", "values": [{"measurement": "cytotoxicity in cell viability assay", "setting": "[5]; concentrations up to one micromolar", "value": "non-cytotoxic"}, {"measurement": "effect of addition to rapamycin-treated cells on the anti-proliferative rapamycin dose response curve", "setting": "[3]; [7]", "value": "leftward and upward shift"}]}
{"molecule": "CC(/C=C/C(=O)NO)=C\\[C@@H](C)C(=O)c1ccc(N(C)C)cc1", "note": "[trichostatin A]", "values": [{"measurement": "anti-proliferative IC50's", "setting": "tumor cell lines", "value": "low nM range"}, {"measurement": "IC50", "setting": "[3]; in vitro cell culture studies", "value": "~6", "unit": "nM"}, {"measurement": "inhibition of human coronary artery smooth muscle cell proliferation", "setting": "[3]; in vitro cell culture studies, FIG. 51", "value": "completely inhibit"}]}
